Measured values: the NIST ThermoML archive (doi:10.1016/j.jct.2017.10.013)
“And” between values parts separate entries of the source, which are not always exact repeats. Equal values may be shown once.

Assays:
[1] = for molar entropy: 101.33 kPa, Vacuum adiabatic calorimetry; for Triple point temperature: Adiabatic calorimetry
[2] = molar heat capacity at constant pressure; details: 101.33 kPa, Vacuum adiabatic calorimetry

[Ho+3].[Ho+3].[Se-2].[Se-2].[Se-2] [holmium selenide (Ho2Se3)]
Details	molar entropy, [1] [J/K/mol]	molar heat capacity at constant pressure, [2]
4.75 K, Crystal 3	–	4.433 J/K/mol
5 K, Crystal 3	1.64	5.229 J/K/mol
5.01 K, Crystal 3	–	4.889 J/K/mol
5.32 K, Crystal 3	–	7.582 J/K/mol
6.03 K, Crystal 2	3.189	12 J/K/mol and 11.86 J/K/mol
6.03 K, Crystal 3	3.189	11.86 J/K/mol and 12 J/K/mol
7 K, Crystal 2	–	10.5 J/K/mol
7.23 K, Crystal 2	–	9.963 J/K/mol
8 K, Crystal 2	–	6.9 J/K/mol
8.62 K, Crystal 2	–	9.268 J/K/mol
9 K, Crystal 2	–	7.3 J/K/mol
10 K, Crystal 2	8.227	8.4 J/K/mol
10.31 K, Crystal 2	–	9.187 J/K/mol
10.68 K, Crystal 2	–	9.794 J/K/mol
11.33 K, Crystal 2	–	10.14 J/K/mol
12.42 K, Crystal 2	–	11.01 J/K/mol
13.07 K, Crystal 2	–	11.54 J/K/mol
14.47 K, Crystal 2	–	12.75 J/K/mol
15 K, Crystal 2	12.67	13.14 J/K/mol
16.86 K, Crystal 2	–	14.62 J/K/mol
20 K, Crystal 2	17.04	17.39 J/K/mol
20.03 K, Crystal 2	–	17.51 J/K/mol
22.71 K, Crystal 2	–	19.72 J/K/mol
25 K, Crystal 2	21.4	22.07 J/K/mol
25.13 K, Crystal 2	–	22.18 J/K/mol
28.04 K, Crystal 2	–	25.54 J/K/mol
30 K, Crystal 2	25.92	27.86 J/K/mol
31.2 K, Crystal 2	–	29.55 J/K/mol
34.35 K, Crystal 2	–	34.03 J/K/mol
35 K, Crystal 2	30.74	34.94 J/K/mol
37.49 K, Crystal 2	–	38.79 J/K/mol
40 K, Crystal 2	35.91	42.81 J/K/mol
40.37 K, Crystal 2	–	43.37 J/K/mol
43.16 K, Crystal 2	–	48 J/K/mol
45 K, Crystal 2	41.42	50.85 J/K/mol
46.66 K, Crystal 2	–	53.47 J/K/mol
50 K, Crystal 2	47.18	58.65 J/K/mol
51.18 K, Crystal 2	–	60.48 J/K/mol
55.76 K, Crystal 2	–	66.98 J/K/mol
59.76 K, Crystal 2	–	72.46 J/K/mol
60 K, Crystal 2	59.16	72.86 J/K/mol
63.99 K, Crystal 2	–	77.76 J/K/mol
68.39 K, Crystal 2	–	82.55 J/K/mol
70 K, Crystal 2	71.3	84.33 J/K/mol
72.45 K, Crystal 2	–	86.7 J/K/mol
76.57 K, Crystal 2	–	90.48 J/K/mol
80 K, Crystal 2	83.16	93.16 J/K/mol
80.18 K, Crystal 2	–	93.23 J/K/mol
85.83 K, Crystal 2	–	97.43 J/K/mol
90 K, Crystal 2	94.54	99.99 J/K/mol
91.8 K, Crystal 2	–	101 J/K/mol
97.35 K, Crystal 2	–	103.9 J/K/mol
100 K, Crystal 2	105.4	105.2 J/K/mol
102.86 K, Crystal 2	–	106.2 J/K/mol
108.72 K, Crystal 2	–	108.5 J/K/mol
110 K, Crystal 2	115.6	109.2 J/K/mol
114.93 K, Crystal 2	–	110.9 J/K/mol
120 K, Crystal 2	125.2	112.4 J/K/mol
121.18 K, Crystal 2	–	112.4 J/K/mol
127.91 K, Crystal 2	–	114.2 J/K/mol
130 K, Crystal 2	134.3	114.8 J/K/mol
135.11 K, Crystal 2	–	115.7 J/K/mol
140 K, Crystal 2	142.9	116.5 J/K/mol
142.05 K, Crystal 2	–	116.8 J/K/mol
148.79 K, Crystal 2	–	117.9 J/K/mol
150 K, Crystal 2	151	117.9 J/K/mol
155.35 K, Crystal 2	–	118.6 J/K/mol
160 K, Crystal 2	158.6	119 J/K/mol
161.76 K, Crystal 2	–	119.2 J/K/mol
168.04 K, Crystal 2	–	119.9 J/K/mol
170 K, Crystal 2	165.9	119.9 J/K/mol
174.8 K, Crystal 2	–	120.3 J/K/mol
180 K, Crystal 2	172.7	120.8 J/K/mol
182.04 K, Crystal 2	–	120.9 J/K/mol
189.15 K, Crystal 2	–	121.4 J/K/mol
190 K, Crystal 2	179.3	121.5 J/K/mol
196.14 K, Crystal 2	–	122.1 J/K/mol
200 K, Crystal 2	185.5	122.1 J/K/mol
203.04 K, Crystal 2	–	122.2 J/K/mol
209.83 K, Crystal 2	–	122.9 J/K/mol
210 K, Crystal 2	191.5	122.8 J/K/mol
216.54 K, Crystal 2	–	123.2 J/K/mol
217.14 K, Crystal 2	–	123.4 J/K/mol
220 K, Crystal 2	197.3	123.6 J/K/mol
220.38 K, Crystal 2	–	123.3 J/K/mol
222.96 K, Crystal 2	–	123.9 J/K/mol
223.16 K, Crystal 2	–	124 J/K/mol
224.88 K, Crystal 2	–	124.3 J/K/mol
226.8 K, Crystal 2	–	124.9 J/K/mol
228.4 K, Crystal 1	201.9	125 J/K/mol and 125.2 J/K/mol
228.4 K, Crystal 2	201.9	125.2 J/K/mol and 125 J/K/mol
229.68 K, Crystal 1	–	124.4 J/K/mol
229.7 K, Crystal 1	–	124.4 J/K/mol
230 K, Crystal 1	202.8	124.3 J/K/mol
230.95 K, Crystal 1	–	123.6 J/K/mol
232.22 K, Crystal 1	–	122.9 J/K/mol
233.8 K, Crystal 1	–	123.6 J/K/mol
235.69 K, Crystal 1	–	122.7 J/K/mol
236.16 K, Crystal 1	–	123.1 J/K/mol
238.19 K, Crystal 1	–	123.1 J/K/mol
240 K, Crystal 1	208	123.1 J/K/mol
241.31 K, Crystal 1	–	123.4 J/K/mol
242.82 K, Crystal 1	–	122.7 J/K/mol
244.42 K, Crystal 1	–	123.3 J/K/mol
249.67 K, Crystal 1	–	123.4 J/K/mol
250 K, Crystal 1	213	123.4 J/K/mol
256.45 K, Crystal 1	–	123.6 J/K/mol
260 K, Crystal 1	217.9	123.6 J/K/mol
263.41 K, Crystal 1	–	123.5 J/K/mol
270 K, Crystal 1	222.6	123.7 J/K/mol
270.54 K, Crystal 1	–	123.7 J/K/mol
274.01 K, Crystal 1	–	123.6 J/K/mol
276.98 K, Crystal 1	–	124 J/K/mol
280 K, Crystal 1	227.1	123.8 J/K/mol
280.45 K, Crystal 1	–	123.7 J/K/mol
284.65 K, Crystal 1	–	124 J/K/mol
289.2 K, Crystal 1	–	123.9 J/K/mol
290 K, Crystal 1	231.4	123.9 J/K/mol
293.71 K, Crystal 1	–	123.6 J/K/mol
298.15 K, Crystal 1	234.8	123.9 J/K/mol
298.18 K, Crystal 1	–	123.9 J/K/mol
300 K, Crystal 1	235.6	123.9 J/K/mol
302 K, Crystal 1	236.4	123.9 J/K/mol
302.6 K, Crystal 1	–	124.2 J/K/mol

[1]
Details	Triple point temperature [K]
Crystal 2	228.4
Crystal 3	6.03
